Assay results taken from patent US11976075B2, “Inhibitors of the MYST family of lysine acetyl transferases” (Isosterix, Inc., priority 2022, dated 2024).
Read-outs that look alike come from different tables or passages of the source.

What was measured:
[1] = biological target: T1, Recombinant KAT6A/MOZ (488-778) protein (Homo sapiens, UniProt Q92794); assay: Kat6a AlphaLISA Inhibition Screening Assay; type: biochemical
T1 construct: Recombinant KAT6A/MOZ (488-778) protein (Active motif, Catalog #81223); purchased Active Motif 81223
T1 sequence (Q92794 488-778): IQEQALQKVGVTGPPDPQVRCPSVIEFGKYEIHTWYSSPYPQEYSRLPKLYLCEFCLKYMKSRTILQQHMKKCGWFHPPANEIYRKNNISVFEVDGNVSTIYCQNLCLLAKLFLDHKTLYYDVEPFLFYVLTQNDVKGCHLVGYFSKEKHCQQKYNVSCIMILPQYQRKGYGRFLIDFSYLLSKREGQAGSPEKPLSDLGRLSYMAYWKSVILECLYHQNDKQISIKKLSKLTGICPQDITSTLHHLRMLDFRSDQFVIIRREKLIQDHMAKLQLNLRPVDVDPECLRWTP
In short: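 Recombinant KAT6A (488-778), 25 nM, was preincubated with compound (10-point dose response) for 60 or 10 min. It then reacted 120 min at room temperature with 200 nM biotin-H3(1-21) peptide and 400 nM acetyl-CoA, pH 8.0, with 330 nM TSA present. Acetylation was detected by AlphaLISA (anti-acetyl-lysine acceptor, streptavidin donor beads).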

ZR-75-1 = assay: In Vitro Cancer Cell Assay (cell viability, Cell Titer Glow, 10 days); type: cell-based; settings: Homo sapiens; ZR-75-1 cells; Table 2
Protocol: ZR-75-1 and T47D are breast cancer cell lines containing high KAT6A protein expression. Proliferation of these cell lines are inhibited upon treatment with a KAT6A inhibitor. Cell line MCF7 is used as a negative control. MCF7 cells have a low KAT6A protein expression and are not growth inhibited upon treatment with KAT6A inhibitors. WM-1119 is used as a positive control.
1500 cells are seeded per well and incubated overnight at 37° C. and 5% CO2. Cells are treated after 24 hours with a compound (stock solution, 10 mM in DMSO) with 9-10 dilutions and a final DMSO concentration of 0.5%. […] Test compounds are tested like WM-1119. Plates are incubated at 37° C. and 5% CO2 for 10 days. Media is replenished after every alternate day. At day 10, Cell Titer Glow is added to the wells and luminescence is recorded after 10 min incubation. Data are normalized to 100% with DMSO control and subtracting media blank. Cell viability is of the test compounds is measured.
The above procedure can be followed for determining activity in additional cell lines, for example, ZR-75-1, T47D, CHAGOK1 and other cell lines that have high expression of KAT6A. The number of cells used will be optimized based on growth rate of the individual cell lines.

[2] = 60′ pre-incubation, Table 2, read-out: Kat6A biochemical assay: IC50
[3] = 10′ pre-incubation, Table 3, read-out: Kat6A Biochemical assay: IC50

Row | Compound | IC50 [1, 2] | EC50 (ZR-75-1) | IC50 [1, 3]
1 | C=CC(=O)NCc1ccn(Cc2cc(OC)c3c(NS(=O)(=O)Cc4ccccc4)noc3c2)n1 [Synthetic Example 20, N-((1-((4-methoxy-3-((phenylmethyl)sulfonamido)benzo[d]isoxazol-6-yl)methyl)-1H-pyrazol-3-yl)methyl)acrylamide] | ≤ 10 µM | > 10 µM | 
2 | C=CS(=O)(=O)NCc1ccn(Cc2cc(OC)c3c(NS(=O)(=O)Cc4ccccc4)noc3c2)n1 [Synthetic Example 21, N-((1-((4-methoxy-3-((phenylmethyl)sulfonamido)benzo[d]isoxazol-6-yl)methyl)-1H-pyrazol-3-yl)methyl)ethenesulfonamide] | ≤ 10 µM | > 10 µM | 
3 | C#CC(=O)N1Cc2cnn(Cc3cc(OC)c4c(NS(=O)(=O)c5c(OC)cccc5OC)noc4c3)c2C1 [Synthetic Example 25A, 2,6-dimethoxy-N-(4-methoxy-6-((5-propioloyl-5,6-dihydropyrrolo[3,4-c]pyrazol-1(4H)-yl)methyl)benzo[d]isoxazol-3-yl)benzenesulfonamide] | ≤ 10 µM | ≤ 10 µM | 
4 | C#CC(=O)N1Cc2cn(Cc3cc(OC)c4c(NS(=O)(=O)c5c(OC)cccc5OC)noc4c3)nc2C1 [Synthetic Example 25B, 2,6-dimethoxy-N-(4-methoxy-6-((5-propioloyl-5,6-dihydropyrrolo[3,4-c]pyrazol-2(4H)-yl)methyl)benzo[d]isoxazol-3-yl)benzenesulfonamide] | ≤ 10 µM | > 10 µM | 
5 | C#CC(=O)N1Cc2cnn(Cc3cc(OC)c4c(NS(=O)(=O)c5ccccc5OC)noc4c3)c2C1 [Synthetic Example 26A, 2-methoxy-N-(4-methoxy-6-((5-propioloyl-5,6-dihydropyrrolo[3,4-c]pyrazol-1(4H)-yl)methyl)benzo[d]isoxazol-3-yl)benzenesulfonamide] | ≤ 10 µM | ≤ 10 µM | 
6 | C#CC(=O)N1Cc2cnn(Cc3cc(OC)c4c(NS(=O)(=O)CC5CCCCC5)noc4c3)c2C1 [Synthetic Example 30A, 1-cyclohexyl-N-(4-methoxy-6-((5-propioloyl-5,6-dihydropyrrolo[3,4-c]pyrazol-1(4H)-yl)methyl)benzo[d]isoxazol-3-yl)methanesulfonamide] | ≤ 10 µM | ≤ 10 µM | 
7 | C#CC(=O)NCc1cnn(Cc2cc(OC)c3c(NS(=O)(=O)c4ccccc4OC)noc3c2)c1 [Synthetic Example 31, N-((1-((4-methoxy-3-((2-methoxyphenyl)sulfonamido)benzo[d]isoxazol-6-yl)methyl)-1H-pyrazol-4-yl)methyl) propiolamide] | ≤ 10 µM | ≤ 10 µM | 
8 | C=CS(=O)(=O)NCc1cnn(Cc2cc(OC)c3c(NS(=O)(=O)c4ccccc4OC)noc3c2)c1 [Synthetic Example 32, 2-methoxy-N-(4-methoxy-6-((4-(vinylsulfonamidomethyl)-1H-pyrazol-1-yl)methyl)benzo[d]isoxazol-3-yl)benzenesulfonamide] | ≤ 10 µM | ≤ 10 µM | 
9 | C=CS(=O)(=O)NCc1cnn(Cc2cc(OC)c3c(NS(=O)(=O)c4c(OC)cccc4OC)noc3c2)c1 [Synthetic Example 33, 2,6-dimethoxy-N-(4-methoxy-6-((4-(vinylsulfonamidomethyl)-1H-pyrazol-1-yl)methyl)benzo[d]isoxazol-3-yl)benzenesulfonamide] | ≤ 10 µM | ≤ 10 µM | 
10 | C#CC(=O)NCc1cnn(Cc2cc(OC)c3c(NS(=O)(=O)c4ccccc4C(=O)OC)noc3c2)c1 [Synthetic Example 36, methyl 2-(N-(4-methoxy-6-((4-(propiolamidomethyl)-1H-pyrazol-1-yl)methyl)benzo[d]isoxazol-3-yl)sulfamoyl)benzoate] | ≤ 10 µM | ≤ 10 µM | 
11 | C#CC(=O)NCc1cnn(Cc2cc(OC)c3c(NS(=O)(=O)c4ccccc4C(=O)O)noc3c2)c1 [Synthetic Example 37, 2-(N-(4-methoxy-6-((4-(propiolamidomethyl)-1H-pyrazol-1-yl)methyl)benzo[d]isoxazol-3-yl)sulfamoyl)benzoic acid] | ≤ 10 µM | ≤ 10 µM | 
12 | C#CC(=O)NCc1cnn(Cc2cc(OC3CC3)c3c(NS(=O)(=O)c4ccccc4OC)noc3c2)c1 [Synthetic Example 43, N-((1-((4-cyclopropoxy-3-((2-methoxyphenyl)sulfonamido)benzo[d]isoxazol-6-yl)methyl)-1H-pyrazol-4-yl)methyl)propiolamide] | ≤ 10 µM | ≤ 10 µM | 
13 | C=CS(=O)(=O)NCc1cnn(Cc2cc(OC)c3c(NS(=O)(=O)CC4CCCCC4)noc3c2)c1 [compound 6] | ≤ 10 µM | ≤ 10 µM | 
14 | COc1cc(Cn2cc(C#N)cn2)cc2onc(NS(=O)(=O)CC3CCCCC3)c12 [compound 126, N-(6-((4-cyano-1H-pyrazol-1-yl)methyl)-4-methoxybenzo[d]isoxazol-3-yl)-1-cyclohexylmethanesulfonamide] |  |  | ≤ 10 µM
15 | COc1cc(Cn2cccn2)cc2nnc(NS(=O)(=O)CC3CCCCC3)n12 [compound 127, N-(7-((1H-pyrazol-1-yl)methyl)-5-methoxy-[1,2,4]triazolo[4,3-a]pyridin-3-yl)-1-cyclohexylmethanesulfonamide] |  |  | ≤ 10 µM
16 | COc1cc(Cn2ccc(CN)n2)cc2onc(NS(=O)(=O)CC3CCCCC3)c12 [compound 128] |  |  | 20 to 50 µM
17 | CCC(=O)NCc1ccn(Cc2cc(OC)c3c(NS(=O)(=O)CC4CCCCC4)noc3c2)n1 [compound 129] |  |  | ≤ 10 µM
18 | COc1cc(Cn2cc(CN)cn2)cc2onc(NS(=O)(=O)CC3CCCCC3)c12 [compound 130] |  |  | ≤ 10 µM
